Source: patent publication US6452067B1, “Methods to assay for post-transcriptional suppression of gene expression” (DNA Plant Technology Corporation, priority 1997, dated 2002)

Legend:
Assay type in all cases: cell-based
[1] = test system: 1345 tomato (an LE-ACS-2 suppressant) leaf explants; test: GUS assay of SSR pPO7110 in precultured leaf explants, 1345 tomato
Experimental: (§1) Two 4 mm discs were cut from each leaf and placed into a solution of Agrobacteria harboring either the suppression-sensitive GUS reporter construct pPO7110 or a control, nonsuppression-sensitive GUS construct, such as pPO7113, that lacks LE-ACS-2 sequences but is identical in every other respect. The Agrobacteria were previously grown in minimal medium containing sucrose and tetracycline at 1 mg/l to an apparent optical density of about 0.2 at 550 nm. Cultures at densities ranging from 0.1-0.4 were used, but the final density was always adjusted to 0.2 at 550 nm using growth medium. Discs were incubated with the Agrobacteria for 0.5-1.5 minutes, then removed and placed on sterile filter paper that was placed on top of tomato cocultivation medium (MS salts with IAA @ 0.05 mg/l, zeatin @ 1 mg/l and 100 μM acetosyringone and 1% gelrite).
(§2) The plates were incubated at 28° C. in the dark for 2.5 days whereupon the discs were removed and stained for GUS activity using 5-bromo-4-chloro-3-indolyl […] (X-Gluc). The discs were vacuum infiltrated for 2 minutes with the substrate solution containing 100 mM potassium phosphate pH 7.0, 10 mM EDTA, 2 mM potassium ferricyanide, 2 mM potassium ferrocyanide, 500 mg/1 X-Gluc, and 0.1% Triton X-100. Incubation was continued overnight (about 14-16 hr) at 37° C. and the plates were visually inspected for the presence of the insoluble blue precipitate a product of the GUS enzyme acting on the X-Gluc substrate. Tissues derived from nontransformed plants or transformed plants not displaying sense suppression will show the presence of a blue precipitate indicative of GUS activity while tissue derived from plants in the suppressed state will show no or comparatively little blue precipitate.
(§3) Strawberry plants which were continuously cultured in axenic conditions in vitro are used as a source of leaf explants. No ethanol dip or other form of surface sterilization was done on the strawberry leaves. […] This preculture step was carried out under lights at 28° C. for 4 days.
(§4) Three different concentrations of acetyosyringone were used in the preculture medium, 100 μM, 250 μM and 1000 μM.

strawberry leaf explants = test: GUS assay in precultured leaf explants, strawberry
Experimental: as §1, §2, §3, §4

[2] = test system: control tomato (line 91103, nontransformed control) leaf explants; test: GUS assay of SSR pPO7110 in precultured leaf explants, control tomato
Experimental: as §1, §2, §3, §4

[3] = 1 mg/l hormone in preculture/cocultivation medium, 0-10 scale
[4] = vac 100AS (100 μM acetosyringone in preculture medium)
[5] = vac 250AS (250 μM acetosyringone)
[6] = vac 1000AS (1000 μM acetosyringone)

SMILES | GUS Assay Results, visual rating of GUS staining (mean in parentheses) [1, 3] | GUS Assay Results, visual rating of GUS staining (mean in parentheses) (strawberry leaf explants; [3]) | GUS Assay Results, visual rating of GUS staining (mean in parentheses) [2, 3] | GUS Assay Results, visual rating of GUS staining (mean in parentheses) [1, 4] | GUS Assay Results, visual rating of GUS staining (mean in parentheses) [1, 5] | GUS Assay Results, visual rating of GUS staining (mean in parentheses) [1, 6] | GUS Assay Results, visual rating of GUS staining (mean in parentheses) (strawberry leaf explants; [4]) | GUS Assay Results, visual rating of GUS staining (mean in parentheses) (strawberry leaf explants; [5]) | GUS Assay Results, visual rating of GUS staining (mean in parentheses) (strawberry leaf explants; [6]) | GUS Assay Results, visual rating of GUS staining (mean in parentheses) [2, 4] | GUS Assay Results, visual rating of GUS staining (mean in parentheses) [2, 5] | GUS Assay Results, visual rating of GUS staining (mean in parentheses) [2, 6] | GUS Assay Results, visual rating of GUS staining (mean in parentheses) ([1]; 3 mg/l NAA) | GUS Assay Results, visual rating of GUS staining (mean in parentheses) (strawberry leaf explants; 3 mg/l NAA) | GUS Assay Results, visual rating of GUS staining (mean in parentheses) ([2]; 3 mg/l NAA)
O=C(O)COc1ccc(Cl)cc1Cl [2,4-D] | 2,2,3 (2.3) | 0,0,0,0 (0) | 3,4,7,8 (5.5) |  |  |  |  |  |  |  |  |  |  |  | 
COc1cc(C(C)=O)cc(OC)c1O [AS, acetosyringone] |  |  |  | 0,0,0,0 (0) | 0,0,0,0 (0) | 0,0,0,0 (0) | 0,0,0,0 (0) | 0,0,0,0 (0) | 0,0,0,0 (0) | 0,0,0,0 (0) | 0,0,0,0 (0) | 0,0,1,2 (0.8) |  |  | 
O=C(O)Cc1c[nH]c2ccccc12 [IAA] | 0,4,4,6 (4.7) | 0,0,0,0 (0) | 5,8,9,9 (7.8) |  |  |  |  |  |  |  |  |  |  |  | 
O=C(O)Cc1cccc2ccccc12 [NAA] | 0,0,0,1 (0.3) | 0,0,0,0 (0) | 0,1,3,3 (1.8) |  |  |  |  |  |  |  |  |  | 0,1,2,4 (1.8) | 0,0,0,1 (0.3) | 3,6,6,6 (5.25)
